Positions of bridges follow the written chain, without caps; N, C: chain ends. Non-standard residues stand in square brackets, D forms with d. Residues, ends and D or L forms follow the SMILES beside them. Chains are numbered I, II in the order given. No end group written: not given here. dibenzylether crosslinker = scaffold alkylating both cysteine thiols (drawn in Scheme 1 and; hArg = N=C(N)NCCCC[C@H](N)C(=O)O; DZ = diazirine photocrosslinker
What was measured:
[1] = target: T1, wild-type His6-tagged H-Ras (1-166) pre-loaded with GDP (Homo sapiens, UniProt P01112); test: Fluorescence polarization binding assay, wild-type H-Ras-GDP
T1 construct: wild-type and mutant His6-tagged H-Ras (1-166) pre-loaded with GDP; made in house; host or cells: Escherichia coli (BL21)
Text: GTP of the Ras-specific nucleotide exchange factor SOS. Cell 112, 685-695 (2003).

H358 cells = test: Photoaffinity labeling with quantitative MS-based proteomics in H358 cells; assay type: cell-based, Homo sapiens; settings: TMT abundance, negative control diazirine probe
Protocol: H358 cells were grown to 80-95% confluence in 10 cm plates with FBS-supplemented RPMI-1640. The growth medium was aspirated and the cells were washed with Dulbecco's phosphate-buffered saline (DPBS). The cells were then incubated with serum-free medium containing probes DZ2-CHC^Sos-5 (20 μM in RPMI-1640 with 0.4% DMSO, two replicates) or control probe CP-2-66 (20 μM in RPMI-1640 with 0.4% DMSO, four replicates) for 4 hours at 37° C. under an atmosphere of 5% CO2 before being irradiated under UV light (365 nm, 30 min, 4° C.). The cells were washed with DPBS, scraped and transferred to 1.5 mL Eppendorf tubes, pelleted, and stored at −80° C. until the next step.
Cell pellets were resuspended in 500 μL of DPBS and lysed by sonication (15 ms on, 40 ms off, 15% amplitude, 1 s total on×2). Protein concentrations were normalized (1-2 mg/mL; final volume of 500 μL with DPBS) using the Lowry Protein Assay (Pierce). To each sample was added solutions of tris((1-benzyl-4-triazolyl)methyl)amine (30 μl, 1.7 mM in DMSO/t-BuOH 1:4 v/v), tris(2-carboxyethyl)phosphine (10 μL, 50 mM), biotin-PEG3-azide (5 μL, 100 μM), and CuSO4 (10 μL, 50 mM) and the samples were shaken at room temperature for 1 hour. A cold MeOH/CHCI3 mixture (2.5 mL, 4:1 v/v) was added to each lysate, followed by 1 mL of cold DPBS. The resulting mixture was vortexed and centrifuged (4,700× g, 10 min, 4° C.). The organic and aqueous layers were aspirated, and the remaining protein disk was further washed via sonication in cold MeOH/CHCl3 solution (2 mL, 4:1) and pelleted by centrifugation (4,700× g, 10 min, 4° C.). The protein pellet was aspirated and combined with freshly prepared urea solution (500 μL, 6 M in DPBS) and a solution of SDS (with 10 μL of 10% w/v) by sonication. A freshly prepared 1:1 solution (50 μL) of TCEP (200 mM in DPBS) and K2CO3 (600 mM in DPBS) was added and the mixture was incubated for 30 min at 37° C. with shaking. A solution of freshly prepared iodoacetamide (70 μL, 400 mM in DPBS) was added and the mixture was incubated at RT in the absence of light. Each sample was combined with a solution of SDS (130 μL, 10% in DPBS w/v) followed by DPBS (5.5 mL) and incubated with pre-equilibrated streptavidin-agarose beads (100 μL of a 50% slurry; Pierce) for 1.5 hours at RT while rotating. The streptavidin beads were pelleted by centrifugation (750 g, 2 min, 4° C.) and sequentially washed with SDS solution (1×5 mL, 0.2% in DPBS), DPBS (2×5 mL), and triethylammonium bicarbonate buffer (1×5 mL, TEAB, 100 mM, pH 8.4). The beads were resuspended in TEAB (0.5 mL, 100 mM pH 8.5) and transferred into LoBind microcentrifuge tubes. The tube was washed once more with TEAB (0.5 mL, 100 mM pH 8.5) to ensure complete transfer of the beads, which were then pelleted by centrifugation (750× g, 2 min, 4° C. and the supernatant aspirated. Each sample of beads was combined with a solution of CaCl2 (2 μL, 100 mM) and a solution of sequencing-grade porcine trypsin (2 μg, Promega in 200 μL TEAB, 100 mM, pH 8.4), and incubated for 14 hours at 37° C.with shaking. The beads were pelleted by centrifugation (750× g, 2 min, 4° C.) and the supernatants were transferred to new
LoBind micro-centrifuge tubes. Each digested sample was TMT 10plex labeled (Thermo Fisher Scientific): for each sample a stock solution of TMT reagent (8 μL, 20 μg/μL) was added along with dry MS-grade acetonitrile (final acetonitrile concentration 30% v/v), followed by incubation at RT for 1 hour. The reaction was quenched by adding hydroxylamine (6 μL) and left to stand for 15 min, followed by the addition of formic acid (5 μL). Each TMT-labeled sample was dried via vacuum centrifugation, and the samples were combined by redissolving one sample in a solution of trifluoroacetic acid (TFA, 200 μL, 0.1% in water) and transferring the solution into each sample tube until all samples were redissolved. […]

H-Ras = target: T2, H-Ras (Homo sapiens, UniProt P01112); test: Photoaffinity labeling of purified H-Ras and tryptic digest MS; assay type: binding; settings: 5 eq. probe, UV light, trypsin digest
T2 construct: Wild-type and mutant N-terminal His6-H-Ras (residues 1-166) in pProEx HTb expression vector; His6 (N, cleaved yes); made in house; host or cells: Escherichia coli (BL21)
Protocol: For each experiment, a sample of 250 μM diazirine-labeled CHD peptide was
Incubated samples were then photo-irradiated for 5 minutes at 24 °C. Photo-conjugated samples were then mixed with 1× SDS-PAGE loading buffer containing 5% 2-mercaptoethanol (200 μL final volume) and heated at 95° C. for 5 minutes. Heated samples were then separated via SDS-PAGE gel electrophoresis on a 1.0 mm 15% polyacrylamide gel. The resulting gel was stained with Coomassie Brilliant Dye and subsequently destained (40% MeOH/10% acetic acid/50% water).
In-gel tryptic digest was conducted with the In-Gel tryptic Digestion Kit (Thermo Scientific) according the manufacturer's instructions. Upon photoaffinity labeling, the conjugated band was isolated as a 1×1 mm segment for in-gel trypsin digest. The isolated gel band was then incubated with 200 μL of Coomassie destaining solution (25 mM ammonium bicarbonate in 1:1 ultrapure water:acetonitrile) for 30 minutes at 37 °C. After incubation, destaining buffer was removed, and the destaining step was repeated twice more. The destained gel band was treated with reducing buffer (25 mM of ammonium bicarbonate, 50 mM TCEP) for 10 minutes at 60° C. After discarding the reducing buffer, the band was treated with 200 μL of iodoacetamide alkylation solution (25 mM ammonium bicarbonate, 100 mM iodoacetamide) for 30 minutes at 37° C. while shaking in the dark. […]

`CC[C@H](C)[C@H](NC(=O)[C@H](Cc1ccccc1)NC(C)=O)C(=O)NCC(=O)N[C@@H](CCCNC(=N)N)C(=O)N[C@@H](CC(C)C)C(=O)N[C@@H](CSCc1ccc(COCc2ccc(CSC[C@H](NC(=O)[C@H](CC(C)C)NC(=O)[C@H](CCCNC(=N)N)NC(=O)[C@H](C)NC(=O)[C@H](CC(C)C)NC(=O)[C@H](CCC(=O)O)NC(=O)[C@H](CCCNC(=N)N)NC(=O)[C@H](CCC(=O)O)NC(=O)[C@H](CC(C)C)NC(=O)[C@H](CCC(=O)O)NC(=O)[C@H](CCCNC(=N)N)NC(=O)[C@H](CC(C)C)NC(=O)[C@H](CCCNC(=N)N)NC(=O)[C@H](Cc3c[nH]c4ccccc34)NC(=O)[C@H](C)NC(=O)[C@H](CC(C)C)NC(C)=O)C(N)=O)cc2)cc1)C(=O)N[C@H](C(=O)N[C@@H](CC(N)=O)C(=O)N[C@H](C(=O)N[C@@H](CC(C)C)C(=O)N[C@@H](CCCCN)C(=O)N[C@@H](CC(C)C)C(=O)N[C@@H](CCCNC(=N)N)C(=O)N[C@@H](CCC(=O)O)C(=O)NCC(=O)N[C@@H](CC(N)=O)C(N)=O)[C@@H](C)CC)[C@@H](C)O` [CHC^Sos-1] (HELM PEPTIDE1{[ac].F.I.G.R.L.C.T.N.I.L.K.L.R.E.G.N.[am]}|PEPTIDE2{[ac].L.A.W.R.L.R.E.L.E.R.E.L.A.R.L.C.[am]}|CHEM1{[c1cc(C[*:1])ccc1COCc1ccc(C[*:2])cc1]}$PEPTIDE1,CHEM1,7:R3-1:R1|PEPTIDE2,CHEM1,17:R3-1:R2$$$V2.0) was tested, and the Kd [1] was 32 ± 6 µM.
For `C#CCCC1(CCC(=O)NC)N=N1` [CP-266], the “Average Abundance CP-266” value (H358 cells; enriched protein AHSA1 (O95433)) was 157, the “Average Abundance CP-266” value (H358 cells; enriched protein EEF1D (P29692)) was 614 and the “Average Abundance CP-266” value (H358 cells; enriched protein HNRNPR (O43390)) was 1745. The “Average Abundance CP-266” value (H358 cells; enriched protein PMVK (Q15126)) was 177, the “Average Abundance CP-266” value (H358 cells; enriched protein PPP4C (P60510)) was 60 and the “Average Abundance CP-266” value (H358 cells; enriched protein STK26 (Q9P289)) was 170.
“DZ1-CHC^Sos-5: CHD^Sos-5 with diazirine photocrosslinker at N-terminus of αI helix: DZ-GLAWRLRELERELARLC-NH2 (chain 1 WIGRLCTEI[hArg]RLRNGN; chain 2 {DZ}-GLAWRLRELERELARLC-NH2; linker I:6-II:17 via dibenzylether crosslinker)” was tested, and the “Ras binding site by photo-crosslinking” value (H-Ras) was “photo-crosslinked with the Ras hinge region”.

— US20240124539A1, “CROSSLINKED HELIX DIMER MIMICS OF SOS AND METHODS OF USING SAME” (NEW YORK UNIVERSITY, priority 2020, published 2024)
